Results from paper PMC10709327, “A class of secreted mammalian peptides with potential to expand cell-cell communication” (Nature Communications, 2023).
Each block holds one compound with its values, some of them ahead of it. Where a SMILES comes first, the peptide text is derived from it. Where no end group is shown, it is not given here. [ ]: non-standard residue; d: D form. pGlu = O=C1CC[C@@H](C(=O)O)N1

Columns and labels:
human TACR3 = target: T1, human TACR3 (Homo sapiens, UniProt P29371); test: TACR agonist assay, PathHunter beta-arrestin recruitment (TACR3); assay type: cell-based; conditions: read-out: maximal activation at TACR3, higher compared to Substance P(6-11)
T1 construct: host or cells: PathHunter beta-arrestin CHO-K1 cells
T1 sequence (P29371 1-465): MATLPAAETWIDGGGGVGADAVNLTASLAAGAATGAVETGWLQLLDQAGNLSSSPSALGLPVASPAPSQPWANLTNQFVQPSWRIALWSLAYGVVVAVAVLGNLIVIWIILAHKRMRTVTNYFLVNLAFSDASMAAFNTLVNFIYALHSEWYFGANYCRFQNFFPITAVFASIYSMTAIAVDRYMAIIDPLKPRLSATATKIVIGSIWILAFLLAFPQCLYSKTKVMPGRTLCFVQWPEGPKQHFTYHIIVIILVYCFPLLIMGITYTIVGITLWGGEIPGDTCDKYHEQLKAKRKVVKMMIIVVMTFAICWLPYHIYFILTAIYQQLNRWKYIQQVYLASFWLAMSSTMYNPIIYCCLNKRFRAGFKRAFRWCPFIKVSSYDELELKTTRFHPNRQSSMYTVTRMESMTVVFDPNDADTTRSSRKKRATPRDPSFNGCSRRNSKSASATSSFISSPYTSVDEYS

in vitro = test: in vitro
Procedure: P value were calculated with two-way ANOVA. Source data are provided as a Source Data file.
At indicated time point, 1 µl of HALT protease inhibitor was immediately added, and plasma was boiled and prepared using the peptidomics workflow described above. […] Half-lives were calculated using an exponential decay fit.

[1] = test system: diet-induced obese male mice; test: 3-day food intake and body weight under daily dosing; assay type: in vivo, mouse; conditions: for Food Intake: 50 mg/kg
Procedure: (§1) Fig. 5 Functional studies of […] in feeding and energy balance in mice. a Schematic of the primary amino acid sequence for full-length mouse GDF15 preproprotein and annotation of CAP-GDF15 sequence as well as the canonical GDF15 hormone sequence. b–d Food intake (b), respiratory exchange ratio (RER, c), and ambulatory activity (d) of 12–16-week diet-induced obese male mice following a single treatment of CAP-GDF15 (50 mg/kg, intraperitoneal) or vehicle control. e–g Food intake (e), RER (f), and ambulatory activity (g) of 12–16-week diet-induced obese male mice following a single treatment of scrambled CAP-GDF15 (50 mg/kg, intraperitoneal, scrambled sequence: pGlu-[…]-NH2) or vehicle control. h, i 3-day food intake (h) and body weight (i) of 12–16-week diet-induced obese male mice following treatment with CAP-GDF15 or scrambled CAP-GDF15 (50 mg/kg/day, IP), or vehicle control. Data are shown as means ± SEM. b–d, N = 12 mice/group; for e, f N = 8 mice/group; for h N = 7 food cages for vehicle and CAP-GDF15 groups and N = 5 for the scrambled peptide group; for i N = 14 mice for the vehicle group, N = 13 for the CAP-GDF15 group, and N = 5 for the scrambled peptide group. b–i injection occurred at time T = 0 (5:00 pm) and data were collected for the following 16 hrs. For (b-i), p values were calculated by two-way ANOVA. Source data are provided as a Source Data file.
Lastly, to determine whether the acute food intake suppressive effects of CAP-GDF15 would lead to long-term suppression of feeding and obesity, we administered CAP-GDF15 or scrambled CAP-GDF15 (50 mg/kg/day, IP), or vehicle control to diet-induced obese mice. Food intake and body weight were monitored over a three-day period. A durable suppression of food intake in CAP-GDF15-treated mice was over the three-day experiment (Vehicle, 7.3 ± 0.5 g/mouse; […], 4.1 ± 0.9 g/mouse/day, P < 0.05, Fig. 5h). Consequently, and as expected, an increasing reduction in body weight was also detected (Vehicle, +0.1 ± 0.3 g/mouse; CAP-GDF15, −1.9 ± 0.3 g/mouse, P < 0.001, Fig. 5i). Importantly, mice treated with the scrambled CAP-GDF15 peptide were indistinguishable in body weight or food intake from control mice (P > 0.05 versus vehicle-treated mice, Fig. 5h, i).
(§2) Animal experiments were performed according to a procedure approved by the Stanford University Administrative Panel on Laboratory Animal Care. Mice were maintained in 12-h light-dark cycles at 22 °C and about 50% relative humidity and fed a standard irradiated rodent diet. Where indicated, a high-fat diet (D12492, Research Diets 60% kcal from fat) was used. Male C57BL/6 J (stock number 000664) and male C57BL/6 J DIO mice were purchased from the Jackson Laboratory (stock number 380050). For studies in high-fat diet-fed mice, peptides were dissolved in 18:1:1 (by volume) of saline:Kolliphor EL (Sigma Aldrich):DMSO and administered to mice by intraperitoneal injections at a volume of 10 µl/g at the indicated doses for the indicated times. For lipopolysacchardide injection, LPS (Sigma, #L2880-10MG) was dissolved in saline and administered to mice at a volume of 5 µl/g at indicated dose. For fasting, food was removed from mice for 16 h. For running, a six-lane Columbus Instruments animal treadmill (product 1055-SRM-D65) was used with following 1 h protocol: 10 min at 6 m/min, 50 min at 18 m/min, and increase every 2 min by 2 m/min for the last 10 minutes, all at 12° incline. For all treatment experiments, mice were mock injected with the vehicle for 3–5 days until body weights were stabilized. Heparin plasma was harvested by submandibular bleed. For all experiments, mice were randomly assigned to treatment groups. Experimenters were not blinded to groups.

[2] = human, in vivo; cited from earlier work
[3] = test system: diet-induced obese male mice; test: Metabolic chamber studies after a single dose (food intake, RER, movement, VO2, VCO2); assay type: in vivo, mouse; conditions: single dose 50 mg/kg intraperitoneal, diet-induced obese male mice, metabolic chambers
Procedure: as §1, with “Data are shown as means ± SEM. b–d, N = 12 mice/group; for e, f N = 8 mice/group; for h N = 7 food cages for vehicle and CAP-GDF15 groups and N = 5 for the scrambled peptide group; for i N = 14 mice for the vehicle group, N = 13 for the CAP-GDF15 group, and N = 5 for the scrambled peptide group. b–i injection occurred at time T = 0 (5:00 pm) and data were collected for the following 16 hrs.” left out
as §2
For acute energy expenditure studies, food intake, RER, movement, VO2, and VCO2 were collected with CLAMS Oxymax Metabolic Cages. Mice were placed in individual metabolic cages for 24 hours prior to experiment. Mice were injected with either vehicle, 50 mg/kg CAP-GDF15, 50 mg/kg uncapped CAP-GDF15, or 50 mg/kg scrambled CAP-GDF15 at 5 pm at T = 0. […] All experiments were done with 3–5 month old DIO mice (Jackson, stock 380050), fed high-fat diet ad libitum.
Supplementary Figure 5. Additional measurements from metabolic chambers of mice treated with CAP-GDF15. a CAP-GDF15 plasma concentration after administration of CAP-GDF15 (50 mg/kg, intraperitoneal) or vehicle control. b-c VO2 (b) and VCO2 (c) of 12-16-week diet-induced obese male mice following a single treatment of CAP-GDF15 (50 mg/kg, intraperitoneal) or vehicle control. d-e VO2 (d) and VCO2 (e) of 12-16-week diet-induced obese male mice following a single treatment of scrambled CAP-GDF15 (50 mg/kg, intraperitoneal, scrambled sequence: p[…]-NH2) or vehicle control. f Acute food intake of 12-16-week diet-induced obese male mice following a single treatment of CAP-GDF15 (50 mg/kg, intraperitoneal), uncapped CAP-GDF15 (50 mg/kg, intraperitoneal), or vehicle control. For (a), N=3/group; (b-c), N=12/group; for (d-e), N=8/group; for (f), N=5/group.
For (a-f), injection occurred at time T=0 (5:00pm). Data are shown as means ± SEM. For (b-i), p values were calculated by two-way ANOVA. Source data are provided as a Source Data

[4] = 50 mg/kg/day IP, diet-induced obese mice, N = 5, P > 0.05 versus vehicle

Emax (human TACR3): ~20%
half-life at 10 µM (in vitro; mouse, plasma): 17.1 min
plasma stability t1/2, earlier manuscript version quoted in the rebuttal (in vitro; mouse, plasma): 14.4 min
Compound: CSCC[C@H](NC(=O)[C@H](CC(C)C)NC(=O)CNC(=O)[C@H](Cc1ccccc1)NC(=O)[C@H](Cc1ccccc1)NC(=O)[C@@H]1CCC(=O)N1)C(N)=O [CAP-TAC1] ([pGlu]FFGLM-NH2)

Compound: CC(C)C[C@H](NC(=O)CNC(=O)[C@@H]1CCC(=O)N1)C(=O)N[C@@H](CCC(=O)O)C(=O)N[C@@H](C)C(=O)N[C@@H](CC(C)C)C(=O)N[C@@H](CCCNC(=N)N)C(=O)N[C@@H](C)C(=O)N[C@@H](CCCNC(=N)N)C(=O)N[C@@H](CC(C)C)C(=O)N[C@@H](CCCNC(=N)N)C(=O)N[C@H](C(N)=O)C(C)C [Scrambled Peptide] ([pGlu]GLEALRARLRV-NH2)
Food Intake ([1]; 24 h, individual animal 1): 2.8 g
Food Intake ([1]; 24 h, individual animal 2): 2.6 g
Food Intake ([1]; 24 h, individual animal 3): 3.6 g
Food Intake ([1]; 24 h, individual animal 4): 3.6 g
Food Intake ([1]; 24 h, individual animal 5): 2.3 g
Food Intake ([1]; 48 h, individual animal 1): 6.2 g
Food Intake ([1]; 48 h, individual animal 2): 4.9 g
Food Intake ([1]; 48 h, individual animal 3): 7.3 g
Food Intake ([1]; 48 h, individual animal 4): 7.3 g
Food Intake ([1]; 48 h, individual animal 5): 4.2 g
Food Intake ([1]; 72 h, individual animal 1): 9.2 g
Food Intake ([1]; 72 h, individual animal 2): 7.4 g
Food Intake ([1]; 72 h, individual animal 3): 10.7 g
Food Intake ([1]; 72 h, individual animal 4): 10.9 g
Food Intake ([1]; 72 h, individual animal 5): 6.9 g

Compound: liraglutide
bioavailability [2]: 55%

half-life at 10 µM (in vitro; mouse, plasma): 8.5 min
Compound: QFFGLM-NH2 [Substance P (6-11)]

Compound: QLELRLRVAAGR [uncapped CAP-GDF15]
effect on acute food intake, in words [3]: significantly less efficacious

plasma stability t1/2 (in vitro): 8.5 min
half-life at 10 µM (in vitro; mouse, plasma): 4.5 min
Compound: CSCC[C@H](NC(=O)[C@H](CC(C)C)NC(=O)CNC(=O)[C@H](Cc1ccccc1)NC(=O)[C@H](Cc1ccccc1)NC(=O)[C@H](CCC(N)=O)NC(=O)[C@H](CCC(N)=O)NC(=O)[C@@H]1CCCN1C(=O)[C@H](CCCCN)NC(=O)[C@@H]1CCCN1C(=O)[C@@H](N)CCCN=C(N)N)C(N)=O [Substance P]

Compound: CC(C)C[C@H](NC(=O)CNC(=O)[C@@H]1CCC(=O)N1)C(=O)N[C@@H](CCC(=O)O)C(=O)N[C@@H](C)C(=O)N[C@@H](CC(C)C)C(=O)N[C@@H](CCCNC(=N)N)C(=O)N[C@@H](C)C(=O)N[C@@H](CCCNC(=N)N)C(=O)N[C@@H](CC(C)C)C(=O)N[C@@H](CCCNC(=N)N)C(=O)N[C@H](C(N)=O)C(C)C [scrambled CAP-GDF15] ([pGlu]GLEALRARLRV-NH2)
3-day body weight compared with control mice, in words [1, 4]: indistinguishable
3-day food intake compared with control mice, in words [1, 4]: indistinguishable
effect on acute food intake, in words [3]: completely ineffective
effect on respiratory exchange ratio (RER) [3]: completely ineffective
